Data taken from patent US20110183978A1, “Phenylpyri(mi)dinylazoles” (Bayer CropScience AG, priority 2009, published 2011).
Where two headings read alike, the source gives them in different places.

What was measured:
[1] = physchem
[2] = tested on: Pyrenophora teres; experiment: Example E: in vivo test on Pyrenophora teres (barley net blotch disease); conditions: Pyrenophora teres, 288 h, barley plants sprayed 24 hours before inoculation, scored after 12 days, read-out: % Wirkungsgrad
Experimental: In Vivo Test on Pyrenophora Teres (Barley Net Blotch Disease) An aqueous suspension of the active substance was prepared by homogenization of a mixture of acetone/Tween/dimethyl sulphoxide and subsequent dilution with water to the desired concentration. Barley plants (variety: Plaisant) are sown in cultivation dishes on a peat-pozzolanic earth substrate (50/50) at 12° C. and sprayed at the first-leaf stage (10 cm size) with the aqueous suspension described above. As a control, plants are sprayed with an aqueous solution with no active substance. After 24 hours the plants are inoculated by spraying with an aqueous suspension of Pyrenophora teres spores (12,000 spores per ml). The spores are derived from a 12 day-old culture. […] After 12 days they are scored in comparison with the control plants.

[3] = tested on: Alternaria solani; experiment: Example M: in vivo test on Alternaria solani (leaf blotch disease/tomato/protective); conditions: 168 h, tomato, protective, 500 ppm active substance, assessed 7 days after inoculation, read-out: % Wirkungsgrad (activity level)
Summary of the method: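 Alternaria solani infection on tomato scored 7 days post-inoculation. Before inoculation, young plants received a protective spray at the stated application dose; formulation was compound mixed with N,N-dimethylformamide and emulsifier, water-diluted.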

[4] = tested on: Rhizoctonia solani; experiment: Example W: in vivo test on Rhizoctonia solani (sheath blight in rice/protective); conditions: 96 h, rice, protective, 250 ppm active substance, assessed 4 days after inoculation, read-out: % Activity level
Experimental: Solvent: 28.5 parts by weight acetone Emulsifier: 1.5 parts by weight alkylaryl polyglycol ethers For the preparation of a suitable active substance preparation, 1 part by weight of active substance is mixed with the stated quantities of solvent and emulsifier and the concentrate is diluted to the desired concentration with water. For the testing for protective activity, young rice plants are sprayed with the active substance preparation at the stated application dosage. One day after the treatment, the plants are inoculated with hyphae of Rhizoctonia solani. […] 4 days after the inoculation, the assessment takes place.

[5] = tested on: Pyricularia oryzae; experiment: whole plant or invertebrate; assay type: in vivo; conditions: 120 h, read-out: % Activity level
[6] = tested on: Fusarium proliferatum; experiment: Example I: production of fumonisin FB1 by Fusarium proliferatum (microtitre plates); assay type: cell-based; conditions: 120 h
[7] = tested on: Fusarium graminearum; experiment: microbe, parasite or virus in culture; assay type: cell-based
[8] = tested on: Rhynchosporium secalis; experiment: Example S: in vivo test on Rhynchosporium secalis (leaf scald in barley/protective); conditions: 336 h, barley, protective, 1000 ppm active substance, assessed 14 days after inoculation, read-out: % Wirkungsgrad (activity level)
Experimental: (§1) Solvent: 49 parts by weight N,N-dimethylacetamide Emulsifier: 1 part by weight alkylaryl polyglycol ethers For the preparation of a suitable active substance preparation, 1 part by weight of active substance is mixed with the stated quantities of solvent and emulsifier and the concentrate is diluted to the desired concentration with water. For the testing for protective activity, young plants are sprayed with the active substance preparation at the stated application dosage. After drying of the spray coating, the plants are sprayed with spores with a spore suspension of Rhynchosporium secalis. […] 14 days after the inoculation, the assessment takes place.

[9] = tested on: Botrytis cinerea; experiment: Example P: in vivo test on Botrytis cinerea (gray mould on bean/protective); conditions: 48 h, bean, protective, 250 ppm active substance, assessed 2 days after inoculation, read-out: % Wirkungsgrad (activity level)
Summary of the method: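 Infection blotch size on leaves was scored 2 days after placing 2 Botrytis-colonised agar pieces per leaf. Inoculation followed drying of a protective spray applied to young plants at the stated dosage. Spray was prepared by diluting compound with solvent and alkylaryl polyglycol ether emulsifier in water.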

[10] = tested on: Venturia inaequalis; experiment: Example O: in vivo test on Venturia inaequalis (apple scab/protective); conditions: 240 h, protective, assessment 10 days after inoculation, read-out: % Wirkungsgrad
Summary of the method: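 Young plants received a preventive spray of compound formulated as an emulsifier-containing aqueous dilution at the given application rate, then were inoculated with apple scab fungus. Disease was scored 10 days post-inoculation.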

[11] = tested on: Sphaerotheca fuliginea; experiment: Example L: in vivo test on Sphaerotheca fuliginea (powdery mildew on cucumber/protective); conditions: Podosphaera fuliginea, 168 h, cucumber, protective, assessment 7 days after inoculation, read-out: % Wirkungsgrad
Summary of the method: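 Young cucumber plants sprayed at stated dosage with compound in DMF/alkylaryl polyglycol ether emulsifier diluted in water; inoculated with S. fuliginea spores one day later. Kept in greenhouse at 70% relative humidity, 23° C; protective activity assessed 7 days after inoculation.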

[12] = tested on: Fusarium graminearum; experiment: whole plant or invertebrate; assay type: in vivo; conditions: in Hordeum vulgare, 120 h, read-out: % Wirkungsgrad (activity level)
[13] = tested on: Aspergillus parasiticus; experiment: microbe, parasite or virus in culture; assay type: cell-based; conditions: 168 h
[14] = tested on: Leptosphaeria nodorum; experiment: Example Q: in vivo test on Leptosphaeria nodorum (glume blotch in wheat/protective); conditions: Parastagonospora nodorum, 192 h, wheat, protective, assessment 8 days after inoculation, read-out: % Wirkungsgrad
Experimental: as §1, with “Leptosphaeria nodorum.” for “Rhynchosporium secalis.”, “8” for “14”

[15] = tested on: Fusarium nivale (var. majus); experiment: whole plant or invertebrate; assay type: in vivo; conditions: Microdochium nivale, in Triticum aestivum, 120 h, read-out: % Wirkungsgrad (activity level)
[16] = tested on: Septoria tritici; experiment: Example R: in vivo test on Septoria tritici (leaf blotch in wheat/protective); conditions: Zymoseptoria tritici, 504 h, wheat, protective, 1000 ppm active substance, assessed 21 days after inoculation, read-out: % Wirkungsgrad (activity level)
Experimental: as §1, with “with” for “with spores with”, “Septoria tritici.” for “Rhynchosporium secalis.”, “21” for “14”

[17] = tested on: Plasmopara viticola; experiment: Example N: in vivo test on Plasmopara viticola (downy mildew, vine/protective); conditions: 144 h, vine, protective, assessment 6 days after inoculation, read-out: % Wirkungsgrad
Summary of the method: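 Assessment of downy mildew on vines took place 6 days post-inoculation, after 1 day of moist incubation. Before infection, the young plants received a protective spray of compound emulsified with alkylaryl polyglycol ethers and diluted with water to the stated application rate.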

[18] = LogPA (logP of the stated pure compound or, in a mixture, of the main isomer, 1-substituted 3-aryl-1H-pyrazole)
[19] = Fusarium proliferatum growth, OD 620, 5 days, read-out: % Inhibition des Pilzwachstums bei 50 μM
[20] = Fusarium proliferatum, 5 days at 20° C., HPLC-MS/MS, read-out: % Inhibition der FB1 produktion bei 50 μM
[21] = 72 h, read-out: % Inhibition des Pilzwachstums bei 50 μM
[22] = 168 h, read-out: % Inhibition der DON/AcDON produktion bei 50 μM

Row | SMILES | chromatographic logP [1, 18] | pest or weed control at 500 ppm [3] [%] | inhibition at 50 µM [6, 19] [%] | inhibition at 50 µM [6, 20] [%] | inhibition at 50 µM [7, 21] [%] | inhibition at 50 µM [7, 22] [%] | pest or weed control at 1000 ppm [8] [%] | pest or weed control at 250 ppm [9] [%] | pest or weed control at 100 ppm [10] [%] | pest or weed control at 500 ppm [11] [%] | pest or weed control at 1000 ppm [12] [%] | pest or weed control at 1000 ppm [14] [%] | pest or weed control at 1000 ppm [15] [%] | pest or weed control at 1000 ppm [16] [%] | pest or weed control at 100 ppm [17] [%] | chromatographic logP ([1]; LogPA) | also measured
1 | CC(C)=CCn1cc(-c2ccncc2)c(-c2c(F)cccc2F)n1 [Compound 7] | 1.69 | – | – | – | – | – | – | – | – | – | – | – | – | – | – | – | pest or weed control at 500 ppm [2]: 73%
2 | CC(C)=CCn1cc(-c2ccncc2)c(-c2ccc(F)cc2)n1 [Compound 30] | 2.11 | 90 | – | – | – | – | – | – | – | – | – | – | – | – | – | – | pest or weed control at 250 ppm [4]: 95%; pest or weed control at 250 ppm [5]: 80%
3 | CC(C)Cn1cc(-c2ccnc(NC(=O)C(C)C)c2)c(-c2ccc(F)cc2)n1 [Compound 87] | 2.89 | 95 | 83 | 100 | 97 | 100 | 88 | 100 | 95 | 100 | 100 | 88 | 92 | 100 | – | – | inhibition at 50 µM ([13]; 50 μM, 7 days at 20° C., read-out: Inhibition der Aflatoxin produktion bei 50 μM): 100%; inhibition at 50 µM ([13]; read-out: % Inhibition des Pilzwachstums bei 50 μM): 97%
4 | CCC(=O)Nc1cc(-c2cn(C(C)CC)nc2-c2ccc(F)cc2)ccn1 (stereo not drawn) [Compound 164] | 2.46 | 95 | 97 | 100 | 100 | 99 | 100 | – | 97 | 100 | 100 | 93 | 100 | 100 | – | – | –
5 | Fc1ccc(-c2nn(CC(F)F)cc2-c2ccncc2)cc1 [Compound 169] | – | – | – | – | 101 | 100 | 100 | 100 | 99 | 89 | 100 | 100 | 71 | 100 | 96 | 1 | pest or weed control at 250 ppm [4]: 100%
6 | CC(C)Cn1cc(-c2ccnc(N)n2)c(-c2ccc(F)cc2)n1 [Compound 184] | – | 95 | – | – | – | – | 71 | 100 | 92 | 95 | 100 | 88 | 100 | 100 | – | 1.81 | –
7 | CC(C)n1cc(-c2ccnc(NC(=O)[C@H](C)O)c2)c(-c2ccc(F)cc2)n1 [Compound 192] | – | 100 | – | – | – | – | 71 | 100 | 95 | 85 | 100 | 86 | 100 | 100 | 94 | 2.14 | –
8 | CCC(=O)Nc1cc(-c2cn(CC3CC3)nc2-c2ccc(F)cc2)ccn1 [Compound 214] | – | 95 | 96 | 100 | 100 | 93 | 100 | 100 | 88 | 100 | 100 | 71 | 100 | 100 | 88 | 2.2 | –
9 | CCC(=O)Nc1cc(-c2cn(CC(F)F)nc2-c2ccc(F)cc2)ccn1 [Compound 215] | – | 94 | 94 | 100 | – | – | 90 | 98 | 96 | 100 | 100 | 71 | 100 | 94 | – | 1.99 | –
10 | CC(C)C(=O)Nc1cc(-c2cn(CC(F)F)nc2-c2ccc(F)cc2)ccn1 [Compound 218] | – | 95 | 79 | 100 | – | – | 100 | 98 | 95 | 100 | 100 | 93 | 92 | 100 | – | 2.29 | –
11 | CC(C)C(=O)Nc1cc(-c2cn(CC3CC3)nc2-c2ccc(F)cc2)ccn1 [Compound 225] | – | 95 | 93 | 100 | 92 | 89 | 90 | 96 | 96 | 100 | 100 | 86 | 100 | 100 | 90 | 2.54 | –
